Laboratory results published in patent publication US20140155445A1, “Compounds and Methods for Treating Cancer and Diseases of the Central Nervous System” (Osta Biotechnologies Inc., priority 2007, published 2014).
Where a name gives a salt, the structure may show the parent alone.

What was measured:
[1] = molecular target: T1, HO-1 (rat spleen) (Rattus norvegicus, UniProt P06762); assay: HO enzymatic activity in rat spleen microsomal fraction (CO formed from methemalbumin, gas chromatography); type: biochemical; conditions: rat spleen microsomes, average ± standard deviation of replicate experiments; for IC50: read-out: IC50 HO-1 (rat spleen)/μM
T1 construct: Spleen microsomes were used as a source of HO-1; from tissue; host or cells: spleen microsomal fraction of adult male Sprague-Dawley rats
T1 sequence (P06762 1-289): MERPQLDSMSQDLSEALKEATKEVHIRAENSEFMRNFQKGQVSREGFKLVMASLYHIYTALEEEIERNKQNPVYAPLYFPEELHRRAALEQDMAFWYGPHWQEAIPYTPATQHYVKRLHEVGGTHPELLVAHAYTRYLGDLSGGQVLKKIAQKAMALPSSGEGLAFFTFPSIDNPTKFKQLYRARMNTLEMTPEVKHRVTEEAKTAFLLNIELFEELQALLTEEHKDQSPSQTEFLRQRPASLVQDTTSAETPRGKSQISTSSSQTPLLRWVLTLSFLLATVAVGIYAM
Experimental: (§1) Incubations for HO activity analysis were done under conditions for which the rate of CO formation (pmol CO×min^−1×mg protein^−1) was linear with respect to time and microsomal protein concentration. Briefly, reaction mixtures (150 μL) consisting of 100 mM phosphate buffer (pH 7.4), 50 μM methemalbumin, and 1 mg/mL protein were pre-incubated with the inhibitors at final concentrations ranging from 0.1-100 μM for 10 minutes at 37° C. Reactions were initiated by adding NADPH at a final concentration of 1 mM and incubations were performed for an additional 15 minutes at 37° C.
(§2) Incubations for HO activity analysis were done under conditions for which the rate of CO formation (pmol CO/mg protein/minute) was linear with respect to time and microsomal protein concentration. Briefly, reaction mixtures (150 μL) consisting of 100 mM phosphate buffer (pH 7.4), 50 μM methemalbumin and 1 mg/mL protein were pre-incubated with the vehicle (ethanol or water in which the inhibitors were dissolved), or inhibitors at final concentrations ranging from 0.1-1000 μM for 10 minutes at 37° C. Reactions were initiated by adding β-NADPH at a final concentration of 1 mM and incubations were carried out for an additional 15 minutes at 37° C. Reactions were stopped by instantly freezing the reaction mixture on pulverized dry ice and CO formation was measured by gas chromatography using a TA 3000R Process Gas Analyzer (Trace Analytical/Ametek, Newark, Del., USA).
(§3) The values on the abscissa represent the decimal logarithm of the inhibitor's concentration (in μM), whereas the values of the activity on the ordinate are expressed as a percentage of the control experiments without inhibitor.
(§4) The IC50 values for the replicate experiments were employed to generate the reported standard deviation value.

[2] = molecular target: T2, HO-2 (rat brain) (Rattus norvegicus, UniProt P23711); assay: HO enzymatic activity in rat brain microsomal fraction (CO formed from methemalbumin, gas chromatography); type: biochemical; conditions: rat brain microsomes, average ± standard deviation of replicate experiments; for IC50: read-out: IC50 HO-2 (rat brain)/μM
T2 construct: brain microsomes were used as a source of HO-2; from tissue; host or cells: brain microsomal fraction of adult male Sprague-Dawley rats
T2 sequence (P23711 1-315): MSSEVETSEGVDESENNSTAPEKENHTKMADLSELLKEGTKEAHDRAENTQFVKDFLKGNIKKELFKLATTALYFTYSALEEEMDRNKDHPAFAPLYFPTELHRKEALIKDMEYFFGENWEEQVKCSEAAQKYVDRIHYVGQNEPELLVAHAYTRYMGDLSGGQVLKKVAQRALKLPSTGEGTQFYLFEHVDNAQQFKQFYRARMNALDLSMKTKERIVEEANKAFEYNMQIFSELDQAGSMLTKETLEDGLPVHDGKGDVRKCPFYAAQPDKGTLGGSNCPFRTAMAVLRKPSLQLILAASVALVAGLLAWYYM
Experimental: as §1, §2, §3, §4

Structure (SMILES) | IC50 [1] [µM] | IC50 [2] [µM] | IC50 HO-1 (rat spleen)/μM [1] | IC50 HO-2 (rat brain)/μM [2]
c1cn(CCCCCCCCCCn2ccnc2)cn1 [1,10-bis-(1H-imidazol-1-yl)decane dihydrochloride] | ~10 | ~14 | – | –
CCC(=O)Cn1ccnc1 [1-(1H-Imidazol-1-yl)-butan-2-one hydrochloride] | > 100 | > 100 | – | –
CC(=O)Cn1ccnc1 [1-(1H-Imidazol-1-yl)-propan-2-one] | – | – | Not Active | Not Active
O=C(Cn1ccnc1)c1ccc2c(c1)OCCO2 [1-(2,3-dihydro-benzo[1,4]dioxin-6-yl)-2-imidazol-1-yl-ethanone hydrochloride] | 73 ± 10 | > 100 | – | –
O=C(Cn1cncn1)c1cc(Cl)ccc1Cl [1-(2,5-Dichloro-phenyl)-2-[1,2,4]triazol-1-yl-ethanone] | 18.4 ± 0.5 | > 100 | – | –
O=C(Cn1ccnc1)c1cc(Cl)ccc1Cl [1-(2,5-dichloro-phenyl)-2-imidazol-1-yl-ethanone hydrochloride] | 6.6 ± 0.2 | 58 ± 10 | – | –
c1ccc(CCC2(Cn3cnnn3)OCCO2)cc1 [1-(2-Phenethyl-[1,3]dioxolan-2-ylmethyl)-1H-tetrazole hydrochloride] | 39 ± 5 | > 100 | – | –
c1ccc(CCC2(Cn3cnc(-c4ccccc4)c3)OCCO2)cc1 [1-(2-Phenethyl-[1,3]dioxolan-2-ylmethyl)-4-phenyl-1H-imidazole hydrochloride] | > 100 | > 100 | – | –
c1ccc(-c2ccc(C3(Cn4ccnc4)OCCO3)cc2)cc1 [1-(2-biphenyl-4-yl-[1,3]dioxolan-2-ylmethyl)-1H-imidazole hydrochloride] | 16.2 ± 0.4 | > 100 | – | –
Cc1nccn1CC(=O)CCc1ccccc1 [1-(2-methyl-imidazol-1-yl)-4-phenyl-butan-2-one hydrochloride] | > 100 | > 100 | – | –
c1ccc(OCCn2ccnc2)cc1 [1-(2-phenoxy-ethyl)-1H-imidazole hydrochloride] | 61 ± 29 | > 100 | – | –
c1ccc(SCCn2ccnc2)cc1 [1-(2-phenylsulfanyl-ethyl)-1H-imidazole hydrochloride] | 6 ± 0.1 | > 100 | – | –
O=C(CCc1ccccc1)Cn1nc(Br)nc1Br [1-(3,5-Dibromo-[1,2,4]triazol-1-yl)-4-phenyl-butan-2-one] | > 100 | > 100 | – | –

Continued, values first:

IC50 [1] [µM] | IC50 [2] [µM] | IC50 HO-1 (rat spleen)/μM [1] | IC50 HO-2 (rat brain)/μM [2] | Structure (SMILES)
~4 | ~9 | – | – | c1cn(CCCCCCCCCCCCn2ccnc2)cn1 [1,12-bis-(1H-imidazol-1-yl)dodecane dihydrochloride]
1.8 ± 0.4 | 6.2 ± 0.1 | – | – | O=C(CCc1ccc([N+](=O)[O-])cc1)Cn1ccnc1 [1-(1H-Imidazol-1-yl)-4-(4-nitro-phenyl)-butan-2-one hydrochloride]
4.1 ± 0.9 | > 100 | – | – | O=C(Cn1cncn1)c1ccc(Cl)cc1Cl [1-(2,4-dichloro-phenyl)-2-[1,2,4]triazol-1-yl-ethanone]
2.2 ± 0.5 | 15 ± 1 | – | – | O=C(Cn1ccnc1)c1ccc(Cl)cc1Cl [1-(2,4-dichloro-phenyl)-2-imidazol-1-yl-ethanone hydrochloride]
3 ± 1 | > 100 | – | – | c1cn(CCC23CC4CC(CC(C4)C2)C3)cn1 [1-(2-adamantan-1-yl-ethyl)-1H-imidazole hydrochloride]
4 ± 1 | > 10 | – | – | c1ccc(CSCCn2ccnc2)cc1 [1-(2-benzylsulfanyl-ethyl)-1H-imidazole]
3.58 ± 0.08 | > 100 | – | – | c1ccc2cc(C3(Cn4cncn4)OCCO3)ccc2c1 [1-(2-naphthalen-2-yl-[1,3]dioxolan-2-ylmethyl)-1H-[1,2,4]triazole]
2.63 ± 0.06 | > 100 | – | – | c1ccc2cc(C3(Cn4ccnc4)OCCO3)ccc2c1 [1-(2-naphthalen-2-yl-[1,3]dioxolan-2-ylmethyl)-1H-imidazole hydrochloride]
1.3 ± 0.5 | > 100 | – | – | O=C(Cn1cncn1)c1ccc(Cl)c(Cl)c1 [1-(3,4-Dichloro-phenyl)-2-[1,2,4]triazol-1-yl-ethanone hydrochloride]
